Consider 1 compound from publication doi:10.1101/094631v2 (biorxiv, 2017).

In the experiment the target is BIKE kinase domain (biotinylated) (Homo sapiens, UniProt Q9NSY1). The experiment can be described thus: TR-FRET tracer displacement. In kind it is binding.

What is called Ki is a dissociation constant, usually derived from enzyme kinetics or from competition with a known ligand. A lower Ki goes with a stronger hold on the target.

BIKE kinase domain (biotinylated), sequence (Q9NSY1 38-345 limits assumed): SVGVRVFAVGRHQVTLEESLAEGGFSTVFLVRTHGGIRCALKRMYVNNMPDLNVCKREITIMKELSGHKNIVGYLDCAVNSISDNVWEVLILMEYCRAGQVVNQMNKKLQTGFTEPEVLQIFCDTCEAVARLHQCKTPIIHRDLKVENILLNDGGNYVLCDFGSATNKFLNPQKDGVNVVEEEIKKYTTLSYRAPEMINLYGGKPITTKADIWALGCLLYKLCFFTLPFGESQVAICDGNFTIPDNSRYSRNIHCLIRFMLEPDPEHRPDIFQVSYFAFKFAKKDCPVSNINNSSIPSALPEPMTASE

For the compound `CC(C)C(=O)Nc1n[nH]c2cc(-c3cccc(NS(=O)(=O)C4CC4)c3)ccc12` [compound 2, N-(6-(3-(cyclopropanesulfonamido)phenyl)-1H-indazol-3-yl)isobutyramide], the inhibition constant Ki is 3.1 µM.
